We go through seven molecules from PMC5324734, “DOTA-Derivatives of Octreotide Dicarba-Analogs with High Affinity for Somatostatin sst2,5 Receptors” (Frontiers in Chemistry, 2017).

The IC50 is the midpoint of a concentration-inhibition curve.

Where “and” joins values, the source holds several entries; their conditions need not be identical. Identical values can stand only once. Like-named read-outs stand apart in the source and are kept apart here. Where a SMILES comes first, the peptide text is derived from it. Bridges are numbered along the chain shown (N, C = ends). [ ]: non-standard residue; d: D form. The star is where a group is joined. DOTA = O=C(O)CN1CCN(CC(=O)O)CCN(CC(=O)*)CCN(CC(=O)O)CC1; 1Nal = N[C@@H](Cc1cccc2ccccc12)C(=O)O; Thr(ol) = C[C@@H](O)[C@H](N)CO; AllylGly = C=CC[C@H](N)C(=O)O; Bn = c1ccc(C*)cc1

In data set [1] the target is T1, sst2 receptor (Homo sapiens, UniProt P30874).
T1 construct: Cell membrane pellets were prepared from human sst2-expressing endogeneous IMR32 cells; host or cells: IMR32 cells (membrane pellets)
T1 sequence (P30874 whole entry): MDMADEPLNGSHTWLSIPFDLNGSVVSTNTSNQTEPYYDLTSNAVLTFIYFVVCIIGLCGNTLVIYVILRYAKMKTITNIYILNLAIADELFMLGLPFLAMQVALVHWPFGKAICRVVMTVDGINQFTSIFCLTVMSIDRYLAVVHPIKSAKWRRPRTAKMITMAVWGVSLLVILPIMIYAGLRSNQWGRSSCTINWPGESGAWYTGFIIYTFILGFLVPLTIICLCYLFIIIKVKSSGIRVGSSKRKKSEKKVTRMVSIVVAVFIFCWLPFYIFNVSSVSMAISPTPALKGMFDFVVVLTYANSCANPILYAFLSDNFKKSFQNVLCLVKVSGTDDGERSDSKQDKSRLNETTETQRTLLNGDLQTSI
On the set-up: method as in Di Cianni et al., 2010. Particulars: free (unconjugated) dicarba-analogs; mean ± SEM; data published previously; ref Di Cianni et al., 2010; cited from earlier work.

Data set [2] deals with T2, sst5 receptor (Homo sapiens, UniProt P35346).
T2 construct: host or cells: CHO cells (membrane pellets)
T2 sequence (P35346 whole entry): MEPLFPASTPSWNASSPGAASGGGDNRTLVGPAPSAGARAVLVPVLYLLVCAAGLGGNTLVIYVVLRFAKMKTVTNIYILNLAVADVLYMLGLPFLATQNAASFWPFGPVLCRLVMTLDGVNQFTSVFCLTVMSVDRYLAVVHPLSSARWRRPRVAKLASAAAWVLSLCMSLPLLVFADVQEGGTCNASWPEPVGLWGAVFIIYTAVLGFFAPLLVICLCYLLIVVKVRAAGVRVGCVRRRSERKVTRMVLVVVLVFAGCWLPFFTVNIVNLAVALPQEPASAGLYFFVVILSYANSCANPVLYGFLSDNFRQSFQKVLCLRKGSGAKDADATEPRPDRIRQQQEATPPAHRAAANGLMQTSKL
Set-up: method as in Di Cianni et al., 2010. Particulars: free (unconjugated) dicarba-analogs; mean ± SEM; data published previously; ref Di Cianni et al., 2010; cited from earlier work.

For data set [3], the target named is T1, sst2 receptor. Description: Somatostatin receptor affinity, displacement of 125I-[LTT]-SRIF-28 (sst2). It counts as binding. Particulars: complete displacement of [Leu8,D-Trp22,125I-Tyr25]-SRIF-28; cell membrane pellets from human sst2-expressing endogeneous IMR32 cells; CEREP; mean ± SEM of three independent repetitions. The protocol:
(§1) Determination of Somatostatin receptors affinity was performed at CEREP (Le Bois l'Evêque, B. P. 3,001, 86,600 Celle l'Evescault, France). Cell membrane pellets were prepared from human sst2-expressing endogeneous IMR32 cells, and sst5-expressing human CHO cells. For each of the tested compounds, complete displacement experiments with the universal SRIF radio-ligand [Leu^8, D-Trp^22, ^125I-Tyr^25]-SRIF-28 (125I-[LTT]-SRIF-28) (2000 Ci/mmol; Anawa, Wangen, Switzerland) were performed. As control, unlabeled seglitide and SRIF-14 were run in parallel, using the same increasing concentrations, with sst2 and sst5 subtypes, respectively. IC50 values were calculated by non-linear regression analysis of the competition curves generated with mean replicate values using Hill equation curve. The analysis was performed using software developed at CEREP (Hill software) and validated by comparison with data generated by the commercial software SigmaPlot 4.0 for Windows.
(§2) The three DOTA conjugated compounds 3b, 4b, and 5b were tested for their ability to bind to the sst2 and sst5 receptors subtypes in complete displacement experiments using the universal somatostatin radioligand [^125I]-[Leu^8,D-Trp^22,Tyr^25]-somatostatin-28. IC50 values were calculated after quantification of the data using a computer-assisted image processing system (Table 1). Receptor subtypes sst2 and sst5 were chosen for preliminary binding assays because of their overexpression in some tumor types (Miller et al., [1995]). In Table 1, the affinities of the parent unconjugated compounds 3a, 4a, and 5a are also reported for comparison (Di Cianni et al., [2010]).

In data set [4] the target is T2, sst5 receptor. As to the kind of experiment: Somatostatin receptor affinity, displacement of 125I-[LTT]-SRIF-28 (sst5). It counts as binding. The settings on record: complete displacement of [Leu8,D-Trp22,125I-Tyr25]-SRIF-28; cell membrane pellets from sst5-expressing human CHO cells; CEREP; mean ± SEM of three independent repetitions. The protocol:
as §1, §2
In general terms: Loss of bound radioactivity is the signal in a displacement assay; it reports binding, not function.

For data set [5] the following is noted: native hormone; ref Weckbecker et al., 2003; cited from earlier work. An excerpt:
Radiolabeled peptides, targeting specific receptors of malignant cells, in primis GPCRs, have emerged in the past years as one of the most promising tools for diagnosis and therapy of several kinds of metastatic tumors which express these receptors (Ramogida and Orvig, [2013]). Somatostatins SRIF-14 and SRIF-28 are peptide hormones, which have a wide range of pharmacological actions on exocrine and endocrine secretions (Brazeau et al., [1973]) mediated by direct interaction with at least five GPCRs. Chemically, they are -S-S- bridged cyclic peptides containing 14 and 28 amino acids, respective ...

On to `C[C@@H](O)[C@@H]1NC(=O)[C@H](CCCCN)NC(=O)[C@@H](Cc2c[nH]c3ccccc23)NC(=O)[C@H](Cc2cccc3ccccc23)NC(=O)[C@@H](NC(=O)[C@H](N)Cc2ccccc2)C/C=C\C[C@@H](C(=O)N[C@H](CO)[C@@H](C)O)NC1=O` [Compound 3a] (H-[dF][AllylGly][1Nal][dW]KT[AllylGly][Thr(ol)]; staple (Z) 2-7), for which the figures for the IC50 on sst2 receptor [1] and on sst5 receptor [2] were 9.6 ± 0.9 nM and 16.5 ± 4.5 nM, respectively. Turning to `C[C@@H](O)[C@@H]1NC(=O)[C@H](CCCCN)NC(=O)[C@@H](Cc2c[nH]c3ccccc23)NC(=O)[C@H](Cc2cccc3ccccc23)NC(=O)[C@@H](NC(=O)[C@@H](Cc2ccccc2)NC(=O)CN2CCN(CC(=O)O)CCN(CC(=O)O)CCN(CC(=O)O)CC2)C/C=C\C[C@@H](C(=O)N[C@H](CO)[C@@H](C)O)NC1=O` [Compound 3b] ({DOTA}-[dF][AllylGly][1Nal][dW]KT[AllylGly][Thr(ol)]; staple (Z) 2-7), the IC50 turned out to be 61 ± 5.4 nM at sst2 receptor [3] and 130 ± 7 nM at sst5 receptor [4]. As for `C[C@@H](O)[C@@H](CO)NC(=O)[C@@H]1C/C=C\C[C@H](NC(=O)[C@H](N)Cc2ccccc2)C(=O)N[C@@H](Cc2ccccc2)C(=O)N[C@H](Cc2c[nH]c3ccccc23)C(=O)N[C@@H](CCCCN)C(=O)N[C@@H](Cc2ccc(OCc3ccccc3)cc2)C(=O)N1` [Compound 4a] (H-[dF][AllylGly]F[dW]KY(Bn)[AllylGly][Thr(ol)]; staple (Z) 2-7), the half-maximal inhibitory concentration (IC50) on sst2 receptor [1] is 46 ± 3 nM; at sst5 receptor [2], 12.3 ± 0.3 nM. As to `C[C@@H](O)[C@@H](CO)NC(=O)[C@@H]1C/C=C\C[C@H](NC(=O)[C@@H](Cc2ccccc2)NC(=O)CN2CCN(CC(=O)O)CCN(CC(=O)O)CCN(CC(=O)O)CC2)C(=O)N[C@@H](Cc2ccccc2)C(=O)N[C@H](Cc2c[nH]c3ccccc23)C(=O)N[C@@H](CCCCN)C(=O)N[C@@H](Cc2ccc(OCc3ccccc3)cc2)C(=O)N1` [Compound 4b] ({DOTA}-[dF][AllylGly]F[dW]KY(Bn)[AllylGly][Thr(ol)]; staple (Z) 2-7), the values for the IC50 on sst2 receptor [3] and on sst5 receptor [4] were above 300 nM and 91 ± 7.8 nM, respectively. Regarding `C[C@@H](O)[C@@H](CO)NC(=O)[C@@H]1C/C=C\C[C@H](NC(=O)[C@H](N)Cc2ccccc2)C(=O)N[C@@H](Cc2cccc3ccccc23)C(=O)N[C@H](Cc2c[nH]c3ccccc23)C(=O)N[C@@H](CCCCN)C(=O)N[C@@H](Cc2ccc(OCc3ccccc3)cc2)C(=O)N1` [Compound 5a] (H-[dF][AllylGly][1Nal][dW]KY(Bn)[AllylGly][Thr(ol)]; staple (Z) 2-7), the figures for the 50% inhibitory concentration (IC50) at sst2 receptor [1] and at sst5 receptor [2] were 101 ± 9 nM and 4.9 ± 1 nM, respectively.

For the molecule `C[C@@H](O)[C@@H](CO)NC(=O)[C@@H]1C/C=C\C[C@H](NC(=O)[C@@H](Cc2ccccc2)NC(=O)CN2CCN(CC(=O)O)CCN(CC(=O)O)CCN(CC(=O)O)CC2)C(=O)N[C@@H](Cc2cccc3ccccc23)C(=O)N[C@H](Cc2c[nH]c3ccccc23)C(=O)N[C@@H](CCCCN)C(=O)N[C@@H](Cc2ccc(OCc3ccccc3)cc2)C(=O)N1` [Compound 5b] ({DOTA}-[dF][AllylGly][1Nal][dW]KY(Bn)[AllylGly][Thr(ol)]; staple (Z) 2-7), the IC50 was > 100 nM and 160 nM on sst2 receptor [3]; 12 ± 2.6 nM at sst5 receptor [4].

In the case of “SRIF-14: native somatostatin peptide hormone, -S-S- bridged cyclic peptide containing 14 amino acids”, the in vivo half-life in data set [5] is reported as below 3 min.
